Two molecules from patent publication US9156834B2, “Derivatives of heteroarylsulfonamides, their preparation and their application in human therapy” (PIERRE FABRE MEDICAMENT, priority 2010, dated 2015) can be followed below.

A word on the % inhibition: it is the change of the read-out against control, counted positive when it falls. In general, melting point refers to the temperature, or range, at which the solid turns liquid.

Where a name gives a salt, the structure may show the parent alone.

The target in data set [1] is T1, human isoform of the Kv1.5 channels (Homo sapiens, UniProt P22460).
T1 construct: expressed in transfected cells; host or cells: HEK293
T1 sequence (P22460 whole entry, canonical isoform): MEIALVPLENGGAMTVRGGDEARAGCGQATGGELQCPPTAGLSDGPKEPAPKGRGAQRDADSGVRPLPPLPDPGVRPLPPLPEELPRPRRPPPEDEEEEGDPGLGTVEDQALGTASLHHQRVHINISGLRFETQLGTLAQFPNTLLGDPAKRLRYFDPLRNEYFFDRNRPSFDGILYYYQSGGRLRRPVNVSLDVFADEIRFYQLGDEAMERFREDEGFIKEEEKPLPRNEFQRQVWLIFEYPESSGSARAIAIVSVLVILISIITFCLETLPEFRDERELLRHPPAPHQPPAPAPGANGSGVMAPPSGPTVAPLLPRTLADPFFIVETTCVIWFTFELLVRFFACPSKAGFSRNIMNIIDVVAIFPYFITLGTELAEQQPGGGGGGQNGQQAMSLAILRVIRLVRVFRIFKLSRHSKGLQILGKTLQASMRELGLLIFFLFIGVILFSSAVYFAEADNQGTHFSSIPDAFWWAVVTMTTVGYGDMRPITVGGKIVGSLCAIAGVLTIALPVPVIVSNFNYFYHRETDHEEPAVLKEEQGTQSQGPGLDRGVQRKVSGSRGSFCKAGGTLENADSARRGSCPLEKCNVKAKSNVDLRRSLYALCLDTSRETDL
Kind of data set: FLIPR thallium ion measurement on potassium channel Kv1.5. It is filed as cell-based. Particulars: HEK293 cells stably transfected with hKv1.5; compound 10 μM, 15 min at 37° C.; fluorescence normalised with 10 μM DPO. On the procedure:
The pharmacological evaluation of the compounds on potassium channel Kv1.5 was undertaken using a 96-well plate and FLIPR technology by thallium ion measurement. The HEK293 cells, transfected in a stable manner with the human isoform of the Kv1.5 channels, are seeded 24 h before the experiment in 96-well plates ([…], 200 μl/well) with polylysine applied in the following culture medium: DMEM, 10% SVF, Penicillin/Streptomycin, G418 as the selection antibiotic.
The FLIPR experiment is undertaken using “FLIPR Potassium Ion Channel Assay Kit”, as indicated by the manufacturer (Molecular Devices).
Briefly, the culture medium is replaced by the solution containing the thallium marker for 90 min at 37° C. On conclusion of this step the compounds for testing are added to a final concentration of 10 μM in the well for 15 min at 37° C. The basic fluorescence is then read for 60 sec. The addition of depolarising medium (20 mM of potassium and 3 mM of final thallium) opens the potassium channels and causes an increase of the fluorescence of the thallium fluorophore corresponding to an influx of thallium ions through the hKv1.5 channels. The measurement is made 30 sec after the injection of the depolarising solution. The application of 10 μM DPO (Tocris, blocker of the Kv1.5 channels) enables the fluorescence to be normalised.

In turn, `O=C(c1ccccc1NS(=O)(=O)c1ccccn1)N1CCN(c2nc3ccc(Br)cc3s2)CC1` [Example 3, N-(2-(4-(6-bromobenzo[d]thiazol-2-yl)piperazine-1-carbonyl)phenyl)-pyridine-2-sulfonamide] came in with a melting point of 102 °C. In addition, the “% inhibition at 10 μM” value in data set [1] came to 100%. `Cc1cccc(S(=O)(=O)Nc2ccccc2C(=O)N2CCN(c3nc4ccc(Br)cc4s3)CC2)n1` (as salt: hydrochloride) [Example 9, N-(2-(4-(6-bromobenzo[d]thiazol-2-yl)piperazine-1-carbonyl)phenyl)-6-methylpyridine-2-sulfonamide dihydrochloride]: the melting point amounted to 180 °C.
